Consider 14 compounds from patent publication US11897862B2 (Gilead Sciences, Inc., priority 2022, dated 2024).

The target of one test is IKZF2 (Homo sapiens, UniProt Q96SW2+Q9UKS7). Briefly: HEK293 HiBiT in vitro degradation of IKZF2. It counts as cell-based. Details: expressed in transfected cells. As to conditions: for Dmax: HEK293, HEK293 HiBiT; for DC50: 18-24 hr incubation, normalized to DMSO control, read-out: IKZF2 EC50. The gist of the method: (§1)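 EC50 and Dmax come from Nano-Glo lytic luminescence after 18-24 hr compound treatment at 37° C. Reporter cells were single-copy Flp-In T-REx HEK293 pools carrying HiBiT fused to the C-terminus of IKZF1, IKZF2 or SALL4. Expression was induced overnight beforehand with […] doxycycline.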

The target in the next test is T1, IKZF1 (Homo sapiens, UniProt Q13422+Q96SW2).
T1 construct: expressed in transfected cells
Briefly: HEK293 HiBiT in vitro degradation of IKZF1. Conditions: for Dmax: HEK293, HEK293 HiBiT, maximum degradation at the highest concentration tested; for DC50: HEK293 HiBiT, 18-24 hr incubation, normalized to DMSO control, read-out: IKZF1 EC50. It counts as cell-based. The gist of the method:
as §1
For orientation: HiBiT is a short tag that completes a luciferase, so light tracks the accessible tagged protein.

Setting [1] is: maximum degradation at the highest concentration tested.

T1 sequence (Q13422 whole entry): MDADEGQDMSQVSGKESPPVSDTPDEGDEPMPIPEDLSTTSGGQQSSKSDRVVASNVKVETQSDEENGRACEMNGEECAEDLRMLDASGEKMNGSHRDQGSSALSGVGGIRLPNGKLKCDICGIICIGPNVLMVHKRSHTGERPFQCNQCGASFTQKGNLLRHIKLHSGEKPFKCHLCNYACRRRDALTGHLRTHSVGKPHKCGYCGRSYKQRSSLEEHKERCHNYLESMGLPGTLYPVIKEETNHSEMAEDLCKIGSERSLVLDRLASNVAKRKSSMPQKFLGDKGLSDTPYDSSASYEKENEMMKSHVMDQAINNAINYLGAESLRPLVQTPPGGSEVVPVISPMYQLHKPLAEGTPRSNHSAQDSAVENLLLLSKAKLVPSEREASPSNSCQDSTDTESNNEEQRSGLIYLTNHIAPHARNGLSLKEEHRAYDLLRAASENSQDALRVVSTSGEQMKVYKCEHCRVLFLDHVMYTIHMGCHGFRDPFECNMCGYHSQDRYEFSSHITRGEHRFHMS
T1 sequence (Q96SW2 whole entry): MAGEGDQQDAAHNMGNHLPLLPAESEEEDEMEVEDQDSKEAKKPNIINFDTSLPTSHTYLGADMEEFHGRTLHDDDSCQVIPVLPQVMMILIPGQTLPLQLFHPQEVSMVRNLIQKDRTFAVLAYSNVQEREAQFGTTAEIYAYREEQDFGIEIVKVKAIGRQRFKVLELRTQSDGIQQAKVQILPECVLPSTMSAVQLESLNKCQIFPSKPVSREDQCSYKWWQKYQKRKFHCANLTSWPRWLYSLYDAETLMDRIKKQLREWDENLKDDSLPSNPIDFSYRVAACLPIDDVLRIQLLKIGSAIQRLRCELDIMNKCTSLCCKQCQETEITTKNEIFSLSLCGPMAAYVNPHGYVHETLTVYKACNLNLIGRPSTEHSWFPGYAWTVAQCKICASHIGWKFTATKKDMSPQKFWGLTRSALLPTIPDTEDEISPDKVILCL
T1 sequence (Q16531 whole entry partner): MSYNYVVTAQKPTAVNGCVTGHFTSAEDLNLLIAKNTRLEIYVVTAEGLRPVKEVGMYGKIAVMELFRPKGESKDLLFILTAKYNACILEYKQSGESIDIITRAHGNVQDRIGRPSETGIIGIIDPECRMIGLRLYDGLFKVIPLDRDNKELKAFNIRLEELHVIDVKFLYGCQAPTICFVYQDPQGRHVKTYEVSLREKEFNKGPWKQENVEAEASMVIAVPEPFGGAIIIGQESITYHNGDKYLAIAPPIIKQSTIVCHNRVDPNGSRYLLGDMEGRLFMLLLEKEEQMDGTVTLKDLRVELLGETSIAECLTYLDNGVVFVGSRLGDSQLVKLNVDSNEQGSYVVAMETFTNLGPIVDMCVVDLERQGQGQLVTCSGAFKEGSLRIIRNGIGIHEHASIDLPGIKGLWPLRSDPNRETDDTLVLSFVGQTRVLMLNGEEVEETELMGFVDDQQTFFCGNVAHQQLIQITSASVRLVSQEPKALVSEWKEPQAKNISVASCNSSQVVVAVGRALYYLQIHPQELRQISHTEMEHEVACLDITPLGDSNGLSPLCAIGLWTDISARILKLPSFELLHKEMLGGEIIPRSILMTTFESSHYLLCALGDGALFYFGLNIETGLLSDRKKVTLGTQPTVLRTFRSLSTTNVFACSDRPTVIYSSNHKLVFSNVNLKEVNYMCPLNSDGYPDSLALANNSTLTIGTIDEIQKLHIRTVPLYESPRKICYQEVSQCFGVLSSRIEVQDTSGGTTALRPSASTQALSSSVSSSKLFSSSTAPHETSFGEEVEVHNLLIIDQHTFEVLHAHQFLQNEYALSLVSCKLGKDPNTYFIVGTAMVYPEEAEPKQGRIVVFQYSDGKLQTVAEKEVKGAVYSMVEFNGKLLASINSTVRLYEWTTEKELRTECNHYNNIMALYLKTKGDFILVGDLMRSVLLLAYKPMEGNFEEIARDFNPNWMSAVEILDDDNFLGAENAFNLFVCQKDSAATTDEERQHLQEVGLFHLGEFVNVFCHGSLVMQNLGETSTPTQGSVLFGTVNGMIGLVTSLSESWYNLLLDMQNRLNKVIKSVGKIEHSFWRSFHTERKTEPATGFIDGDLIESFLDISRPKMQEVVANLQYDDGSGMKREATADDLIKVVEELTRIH
IKZF2, sequence (Q9UKS7 1-500 isoform Q9UKS7-2): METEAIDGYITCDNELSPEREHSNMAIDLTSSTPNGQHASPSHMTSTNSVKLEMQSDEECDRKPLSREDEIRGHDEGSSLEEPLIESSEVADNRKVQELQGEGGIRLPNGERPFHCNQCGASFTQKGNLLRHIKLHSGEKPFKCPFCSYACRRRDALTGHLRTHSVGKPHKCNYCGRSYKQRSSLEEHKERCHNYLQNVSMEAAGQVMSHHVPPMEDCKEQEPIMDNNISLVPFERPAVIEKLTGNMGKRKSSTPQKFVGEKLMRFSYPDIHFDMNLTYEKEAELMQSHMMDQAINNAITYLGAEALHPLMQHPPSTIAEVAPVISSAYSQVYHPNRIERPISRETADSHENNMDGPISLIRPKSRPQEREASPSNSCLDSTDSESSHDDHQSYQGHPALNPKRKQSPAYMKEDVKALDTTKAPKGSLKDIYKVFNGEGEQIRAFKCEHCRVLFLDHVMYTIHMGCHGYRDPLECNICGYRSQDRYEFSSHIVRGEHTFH
IKZF2, sequence (Q96SW2 whole entry, the tested form may be a part): as the sequence (Q96SW2 whole entry) above
IKZF2, sequence (Q16531 whole entry partner, the tested form may be a part): as the sequence (Q16531 whole entry partner) above

Broadly, the Dmax is the greatest extent of degradation seen. The low end stands for a partial loss of target, the high end for a fuller loss of target. Regarding `N#Cc1ccc(CN[C@H]2CCCC[C@@H]2Cc2ccc3c(c2)CN(C2CCC(=O)NC2=O)C3=O)cc1` (stereo partly drawn) [Example 20, 4-((((1S,2R)-2-((2-(2,6-dioxopiperidin-3-yl)-1-oxoisoindolin-5-yl)methyl)cyclohexyl)amino)methyl)benzonitrile], the Dmax at IKZF2 (setting [1]) was found to be 94%; on IKZF1 it was 35%. In addition, the DC50 is 19 nM at IKZF2 (HEK293 HiBiT) and 99 nM on IKZF1.

In turn, `O=C1CCC(N2Cc3c(ccc(C[C@H]4OCCC[C@@H]4NC4CCc5cn[nH]c5C4)c3F)C2=O)C(=O)N1` (single isomer, unassigned) [Example 360] yielded a Dmax at IKZF2 (setting [1]) of 90%. In addition, the DC50 at IKZF2 (HEK293 HiBiT) is 139 nM; at IKZF1 it was over 1000 nM.

The compound `O=C1CCC(N2Cc3cc(C[C@H]4CCCC[C@@H]4NC4CCC4)ccc3C2=O)C(=O)N1` (stereo partly drawn) [Example 48, 3-(5-(((1R,2S)-2-(cyclobutylamino)cyclohexyl)methyl)-1-oxoisoindolin-2-yl)piperidine-2,6-dione] displayed a Dmax on IKZF2 (setting [1]) of 96%. Also, the values for the DC50 at IKZF2 (HEK293 HiBiT) and on IKZF1 were 24 nM and over 1000 nM, respectively.

On to `CC(CC(F)(F)F)N[C@H]1CCCC[C@@H]1Cc1ccc2c(c1)CN(C1CCC(=O)NC1=O)C2=O` (single isomer, unassigned) [Example 249], for which the Dmax at IKZF2 (setting [1]) was 97%. Also, the DC50 was 4 nM on IKZF2 (HEK293 HiBiT) and over 1000 nM on IKZF1.

`O=C1CCC(N2Cc3c(ccc(C[C@H]4OCCC[C@@H]4NC4CCc5cn[nH]c5C4)c3F)C2=O)C(=O)N1` (stereo partly drawn) [Example 374] displayed a Dmax on IKZF2 (setting [1]) of 98%. Further, the DC50 at IKZF2 (HEK293 HiBiT) was 58 nM; on IKZF1, over 1000 nM.

`CC1(C)CCCC(N[C@H]2CCCC[C@@H]2Cc2ccc3c(c2)CN(C2CCC(=O)NC2=O)C3=O)C1` (single isomer, unassigned) [Example 275] had a Dmax on IKZF2 (setting [1]) of 96%. Also, the DC50 on IKZF2 (HEK293 HiBiT) was 4 nM; on IKZF1, over 1000 nM.

`O=C1CCC(N2Cc3cc(C[C@H]4CCCC[C@@H]4NCc4cncs4)ccc3C2=O)C(=O)N1` (stereo partly drawn) [Example 6, 3-(1-oxo-5-(((1R,2S)-2-((thiazol-5-ylmethyl)amino)cyclohexyl)methyl)isoindolin-2-yl)piperidine-2,6-dione]: the Dmax worked out at 90% on IKZF2 (setting [1]) and 32% at IKZF1. In addition, the DC50 at IKZF2 (HEK293 HiBiT) stood at 30 nM; at IKZF1, 122 nM.

As to `CC(N[C@H]1CCCC[C@@H]1Cc1ccc2c(c1)CN(C1CCC(=O)NC1=O)C2=O)C1(C(F)F)CC1` (stereo partly drawn) [Example 312], the DC50 is 9 nM on IKZF2 (HEK293 HiBiT) and over 1000 nM on IKZF1. Further, at IKZF2 (HEK293 HiBiT, maximum degradation at the highest concentration tested), the “IKZF2 Dmax” value turned out to be 95%.

Turning to `O=C1CCC(N2Cc3cc(C[C@H]4CCCC[C@@H]4NCc4ccccc4)ccc3C2=O)C(=O)N1` (single isomer, unassigned) [Example 97], the results for the DC50 on IKZF2 (HEK293 HiBiT) and on IKZF1 were 36 nM and 85 nM, respectively.

In the case of `CC1(C)CC2(CC(N[C@H]3CCCC[C@@H]3Cc3ccc4c(c3)CN(C3CCC(=O)NC3=O)C4=O)C2)C1` (stereo partly drawn) [Example 100], the maximal degradation (Dmax) stood at 94% on IKZF2 (setting [1]) and 34% at IKZF1. The DC50 worked out at 12 nM on IKZF2 (HEK293 HiBiT) and 61 nM on IKZF1.

In the case of `O=C1CCC(N2Cc3cc(C[C@H]4CCCC[C@@H]4NC4CC5CCC(C4)O5)ccc3C2=O)C(=O)N1` (stereo partly drawn) [Example 112], the Dmax on IKZF2 (setting [1]) amounted to 97%; at IKZF1, 30%. Besides, the DC50 at IKZF2 (HEK293 HiBiT) is 3 nM; on IKZF1, 56 nM.

As to `CC(c1ccc2c(c1)CN(C1CCC(=O)NC1=O)C2=O)[C@H]1CCCC[C@@H]1NC1CCC(F)(F)CC1` (stereo partly drawn) [Example 147], the Dmax at IKZF2 (setting [1]) turned out to be 75%. Besides, the DC50 at IKZF2 (HEK293 HiBiT) is 37 nM; at IKZF1, over 1000 nM.

With `O=C1CCC(N2Cc3cc(C[C@H]4CCCC[C@@H]4NCC4CCOC4)ccc3C2=O)C(=O)N1` (stereo partly drawn) [Example 69], on IKZF2 (setting [1]), the Dmax was determined as 91%. Further, the DC50 was 19 nM on IKZF2 (HEK293 HiBiT) and over 1000 nM on IKZF1.

Compound `CC(N[C@H]1CCCC[C@@H]1Cc1ccc2c(c1)CN(C1CCC(=O)NC1=O)C2=O)C1(C)CC1` (stereo partly drawn) [Example 234] displayed a Dmax on IKZF2 (setting [1]) of 98%. The DC50 is 11 nM on IKZF2 (HEK293 HiBiT) and over 1000 nM at IKZF1.
